Laboratory results: patent US10626144B2, “Peptide derivatives and uses thereof” (Nosopharm, priority 2014, dated 2020)
Square brackets hold non-standard residues; d marks the D form. Peptide text beside a SMILES is read from it. * marks the point of attachment. Pro(cis-4-CF3) = O=C(O)[C@@H]1C[C@H](C(F)(F)F)CN1; Phe(2,4-Me2) = Cc1ccc(C[C@H](N)C(=O)O)c(C)c1; Pro(trans-4-F) = O=C(O)[C@@H]1C[C@@H](F)CN1; Phe(3-F) = N[C@@H](Cc1cccc(F)c1)C(=O)O; Dab(3S-OH) = NC[C@H](O)[C@H](N)C(=O)O; Phe(2-F) = N[C@@H](Cc1ccccc1F)C(=O)O; Lys(iPr) = CC(C)NCCCC[C@H](N)C(=O)O; 4Pal = N[C@@H](Cc1ccncc1)C(=O)O; ΔZArg = N=C(N)NCC/C=C(\N)C(=O)O; Cit = NC(=O)NCCC[C@H](N)C(=O)O; Lys(Me) = CNCCCC[C@H](N)C(=O)O; NMeK = CN[C@@H](CCCCN)C(=O)O; dOrn = NCCC[C@@H](N)C(=O)O; Orn = NCCC[C@H](N)C(=O)O; Dab = NCC[C@H](N)C(=O)O; NH(CH2)4NH2 = NCCCCN*

What was measured:
Experiment in all cases: MIC, broth microdilution (CLSI), reference strain
Conditions in all cases: CAMHB
[1] = test system: Escherichia coli ATCC 25922
[2] = test system: Pseudomonas aeruginosa ATCC 27853
[3] = test system: Staphylococcus aureus ATCC 13709
[4] = test system: Acinetobacter baumannii ATCC 19606

Ec: MIC Escherichia coli ATCC 25922 [1]	Pa: MIC Pseudomonas aeruginosa ATCC 27853 [2]	Sa: MIC Staphylococcus aureus ATCC 13709 [3]	Ab: MIC Acinetobacter baumannii ATCC 19606 [4]	SMILES
++ (≤8 μg/mL)	− (>32 μg/mL)	++ (≤8 μg/mL)	− (>32 μg/mL)	N=C(N)NCC/C=C(\NC(=O)[C@H](CCCCN)NC(=O)[C@H](Cc1ccccc1F)NC(=O)[C@@H]1CCCN1C(=O)[C@@H](CCCN)NC(=O)CNC(=O)[C@H](CCCN)NC(=O)[C@@H](NC(=O)[C@@H](N)CCCCN)[C@@H](O)CN)C(=O)O [211.9] (H-K[Dab(3S-OH)][Orn]G[dOrn]P[Phe(2-F)]K[ΔZArg]-OH)
+ (≤32 μg/mL)	− (>32 μg/mL)	++ (≤8 μg/mL)	− (>32 μg/mL)	N=C(N)NCC/C=C(\NC(=O)[C@H](CCCCN)NC(=O)[C@H](Cc1cnc[nH]1)NC(=O)[C@@H]1CCCN1C(=O)[C@@H](CCCN)NC(=O)CNC(=O)[C@H](CCCN)NC(=O)[C@@H](NC(=O)[C@@H](N)CCCCN)[C@@H](O)CN)C(=O)O [211.2] (H-K[Dab(3S-OH)][Orn]G[dOrn]PHK[ΔZArg]-OH)
++ (≤8 μg/mL)	− (>32 μg/mL)	++ (≤8 μg/mL)	− (>32 μg/mL)	CNCCCC[C@H](NC(=O)[C@@H](NC(=O)[C@@H](N)CCCCN)[C@@H](O)CN)C(=O)NCC(=O)N[C@H](CCCN)C(=O)N1CCC[C@H]1C(=O)N[C@@H](Cc1cnc[nH]1)C(=O)N[C@@H](CCCCN)C(=O)N/C(=C\CCNC(=N)N)C(N)=O [215.2] (H-K[Dab(3S-OH)][Lys(Me)]G[dOrn]PHK[ΔZArg]-NH2)
++ (≤8 μg/mL)	− (>32 μg/mL)	++ (≤8 μg/mL)	− (>32 μg/mL)	N=C(N)NCC/C=C(\NC(=O)[C@H](CCCCN)NC(=O)[C@H](Cc1cnc[nH]1)NC(=O)[C@@H]1CCCN1C(=O)[C@@H](CCCN)NC(=O)CNC(=O)[C@H](CCCNC(=N)N)NC(=O)[C@@H](NC(=O)[C@@H](N)CCCCN)[C@@H](O)CN)C(N)=O [217.1] (H-K[Dab(3S-OH)]RG[dOrn]PHK[ΔZArg]-NH2)
+ (≤32 μg/mL)	− (>32 μg/mL)	+ (≤32 μg/mL)	− (>32 μg/mL)	C[C@@H](O)[C@H](NC(=O)[C@@H](NC(=O)[C@@H](N)CCCCN)[C@@H](O)CN)C(=O)NCC(=O)N[C@H](CCCN)C(=O)N1CCC[C@H]1C(=O)N[C@@H](Cc1cnc[nH]1)C(=O)N[C@@H](CCCCN)C(=O)N/C(=C\CCNC(=N)N)C(=O)O [25.3] (H-K[Dab(3S-OH)]TG[dOrn]PHK[ΔZArg]-OH)

Further lines, the compound ahead of its results:

SMILES	Ec: MIC Escherichia coli ATCC 25922 [1]	Pa: MIC Pseudomonas aeruginosa ATCC 27853 [2]	Sa: MIC Staphylococcus aureus ATCC 13709 [3]	Ab: MIC Acinetobacter baumannii ATCC 19606 [4]
C[C@H](NC(=O)[C@@H](NC(=O)[C@@H](N)CCCCN)[C@@H](O)CN)C(=O)NCC(=O)N[C@H](CCCN)C(=O)N1CCC[C@H]1C(=O)N[C@@H](Cc1cnc[nH]1)C(=O)N[C@@H](CCCCN)C(=O)N/C(=C\CCNC(=N)N)C(=O)N[C@@H](CCCCN)C(=O)O [24.62] (H-K[Dab(3S-OH)]AG[dOrn]PHK[ΔZArg]K-OH)	+ (≤32 μg/mL)	− (>32 μg/mL)	++ (≤8 μg/mL)	− (>32 μg/mL)
C[C@H](NC(=O)[C@@H](NC(=O)[C@@H](N)CCCCN)[C@@H](O)CN)C(=O)NCC(=O)N[C@H](CCCN)C(=O)N1CCC[C@H]1C(=O)N[C@H](C(=O)N[C@@H](CCCCN)C(=O)N/C(=C\CCNC(=N)N)C(=O)O)[C@@H](C)O [24.137] (H-K[Dab(3S-OH)]AG[dOrn]PTK[ΔZArg]-OH)	− (>32 μg/mL)	− (>32 μg/mL)	+ (≤32 μg/mL)	− (>32 μg/mL)
CC(C)NCCCC[C@H](NC(=O)[C@H](Cc1cnc[nH]1)NC(=O)[C@@H]1CCCN1C(=O)[C@@H](CCCN)NC(=O)CNC(=O)[C@H](C)NC(=O)[C@@H](NC(=O)[C@@H](N)CCCCN)[C@@H](O)CN)C(=O)N[C@H](CCCNC(=N)N)C(N)=O [24.127] (H-K[Dab(3S-OH)]AG[dOrn]PH[Lys(iPr)][dR]-NH2)	+ (≤32 μg/mL)	− (>32 μg/mL)	++ (≤8 μg/mL)	− (>32 μg/mL)
CN[C@@H](CCCCN)C(=O)N[C@H](C(=O)N[C@@H](C)C(=O)NCC(=O)N[C@H](CCCN)C(=O)N1CCC[C@H]1C(=O)N[C@@H](Cc1cnc[nH]1)C(=O)N[C@@H](CCCCN)C(=O)N/C(=C\CCNC(=N)N)C(=O)O)[C@@H](O)CN [24.126] (H-[NMeK][Dab(3S-OH)]AG[dOrn]PHK[ΔZArg]-OH)	+ (≤32 μg/mL)	− (>32 μg/mL)	+ (≤32 μg/mL)	− (>32 μg/mL)
C[C@H](NC(=O)[C@@H](NC(=O)[C@@H](N)CCCCN)[C@@H](O)CN)C(=O)NCC(=O)N[C@H](CCCN)C(=O)N1CCC[C@H]1C(=O)N[C@@H](Cc1ccncc1)C(=O)N[C@@H](CCCCN)C(=O)N/C(=C\CCNC(=N)N)C(=O)N[C@@H](CCCCN)C(=O)NCCCCN [24.19] (H-K[Dab(3S-OH)]AG[dOrn]P[4Pal]K[ΔZArg]K-{NH(CH2)4NH2})	++ (≤8 μg/mL)	+ (≤32 μg/mL)	++ (≤8 μg/mL)	− (>32 μg/mL)
N=C(N)NCC/C=C(\NC(=O)[C@H](CCCCN)NC(=O)[C@H](Cc1cccc(F)c1)NC(=O)[C@@H]1CCCN1C(=O)[C@@H](CCCN)NC(=O)CNC(=O)[C@@H](NC(=O)[C@@H](NC(=O)[C@@H](N)CCCCN)[C@@H](O)CN)[C@@H](O)CN)C(=O)O [22.36] (H-K[Dab(3S-OH)][Dab(3S-OH)]G[dOrn]P[Phe(3-F)]K[ΔZArg]-OH)	++ (≤8 μg/mL)	− (>32 μg/mL)	++ (≤8 μg/mL)	− (>32 μg/mL)
C[C@H](NC(=O)[C@@H](NC(=O)[C@@H](N)CCCCN)[C@@H](O)CN)C(=O)NCC(=O)N[C@H](CCCN)C(=O)N1CCC[C@H]1C(=O)N[C@@H](CCCNC(N)=O)C(=O)N[C@@H](CCCCN)C(=O)N/C(=C\CCNC(=N)N)C(=O)O [24.116] (H-K[Dab(3S-OH)]AG[dOrn]P[Cit]K[ΔZArg]-OH)	− (>32 μg/mL)	− (>32 μg/mL)	+ (≤32 μg/mL)	− (>32 μg/mL)
C[C@H](NC(=O)[C@H](CCN)NC(=O)[C@@H](N)CCCCN)C(=O)NCC(=O)N[C@H](CCCN)C(=O)N1C[C@H](F)C[C@H]1C(=O)N[C@@H](Cc1cnc[nH]1)C(=O)N[C@@H](CCCCN)C(=O)N/C(=C\CCNC(=N)N)C(=O)N[C@@H](CCCCN)C(=O)NCCCCN [14.7] (H-K[Dab]AG[dOrn][Pro(trans-4-F)]HK[ΔZArg]K-{NH(CH2)4NH2})	− (>32 μg/mL)	− (>32 μg/mL)	++ (≤8 μg/mL)	− (>32 μg/mL)
COC(=O)CC[C@H](NC(=O)[C@@H]1CCCN1C(=O)[C@@H](CCCN)NC(=O)CNC(=O)[C@H](C)NC(=O)[C@@H](NC(=O)[C@@H](N)CCCCN)[C@@H](O)CN)C(=O)N[C@@H](CCCCN)C(=O)N/C(=C\CCNC(=N)N)C(=O)O [24.120] (H-K[Dab(3S-OH)]AG[dOrn]PE(OMe)K[ΔZArg]-OH)	+ (≤32 μg/mL)	− (>32 μg/mL)	− (>32 μg/mL)	− (>32 μg/mL)
Cc1ccc(C[C@H](NC(=O)[C@@H]2CCCN2C(=O)[C@@H](CCCN)NC(=O)CNC(=O)[C@H](C)NC(=O)[C@@H](NC(=O)[C@@H](N)CCCCN)[C@@H](O)CN)C(=O)N[C@@H](CCCCN)C(=O)N/C(=C\CCNC(=N)N)C(=O)O)c(C)c1 [24.78] (H-K[Dab(3S-OH)]AG[dOrn]P[Phe(2,4-Me2)]K[ΔZArg]-OH)	+ (≤32 μg/mL)	− (>32 μg/mL)	++ (≤8 μg/mL)	− (>32 μg/mL)
C[C@H](NC(=O)[C@@H](NC(=O)[C@@H](N)CCCCN)[C@@H](O)CN)C(=O)NCC(=O)N[C@H](CCCN)C(=O)N1C[C@@H](C(F)(F)F)C[C@H]1C(=O)N[C@@H](Cc1cnc[nH]1)C(=O)N[C@@H](CCCCN)C(=O)N/C(=C\CCNC(=N)N)C(=O)O [24.143] (H-K[Dab(3S-OH)]AG[dOrn][Pro(cis-4-CF3)]HK[ΔZArg]-OH)	+ (≤32 μg/mL)	− (>32 μg/mL)	++ (≤8 μg/mL)	− (>32 μg/mL)
C[C@H](NC(=O)/C(=C/CCNC(=N)N)NC(=O)[C@H](CCCCN)NC(=O)[C@H](Cc1cnc[nH]1)NC(=O)[C@@H]1CCCN1C(=O)[C@@H](CCCN)NC(=O)CNC(=O)[C@H](C)NC(=O)[C@@H](NC(=O)[C@@H](N)CCCCN)[C@@H](O)CN)C(N)=O [24.7] (H-K[Dab(3S-OH)]AG[dOrn]PHK[ΔZArg]A-NH2)	++ (≤8 μg/mL)	− (>32 μg/mL)	++ (≤8 μg/mL)	− (>32 μg/mL)
N=C(N)NCC/C=C(\NC(=O)[C@H](CCCCN)NC(=O)[C@H](Cc1cnc[nH]1)NC(=O)[C@@H]1CCCN1C(=O)[C@@H](CCCN)NC(=O)CNC(=O)[C@@H](NC(=O)[C@@H](NC(=O)[C@@H](N)CCCCN)[C@@H](O)CN)[C@@H](O)CN)C(=O)N[C@@H](CCCCN)C(=O)O [22.29] (H-K[Dab(3S-OH)][Dab(3S-OH)]G[dOrn]PHK[ΔZArg]K-OH)	+ (≤32 μg/mL)	− (>32 μg/mL)	++ (≤8 μg/mL)	− (>32 μg/mL)
